Structures can show the parent of a compound that is named as a salt. Where two headings read alike, the source gives them in different places.
Key:
[1] = system: interferon (α); assay: Cytokine induction in human cells: interferon (α) by ELISA; format: cell-based; details: human PBMCs, 18 to 24 hours incubation, ELISA of culture supernatant, read-out: Lowest Effective Concentration (μM) Interferon
[2] = system: tumor necrosis factor (α); assay: Cytokine induction in human cells: tumor necrosis factor (α) by ELISA; format: cell-based; details: human PBMCs, 18 to 24 hours incubation, ELISA of culture supernatant, read-out: Lowest Effective Concentration (μM) Tumor Necrosis Factor

Row | SMILES | minimal effective concentration ([1]; Homo sapiens, PBMC) | minimal effective concentration ([2]; Homo sapiens, PBMC) | minimal effective concentration [1] | minimal effective concentration [2]
1 | CCCCc1nc2c(N)nc3ccccc3c2n1CCCCNS(=O)(=O)c1ccc(Cl)cc1Cl [Example 92] | 0.1 µM | 10 µM | – | –
2 | Nc1nc2c(c3c1ncn3CCCCNS(=O)(=O)Cc1ccccc1)CCCC2 [Example 67] | 10 µM | > 30 µM | – | –
3 | CCCCc1nc2c(N)nc3ccccc3c2n1CCCCNS(C)(=O)=O [Example 6, N^1-[4-(4-Amino-2-butyl-1H-imidazo[4,5-c]quinolin-1-yl)butyl]methanesulfonamide] | – | – | 0.00017 µM | 1.11 µM
4 | CCCCc1nc2c(N)nc3ccccc3c2n1CCNS(=O)(=O)c1ccc(Cl)c(Cl)c1 [Example 22] | 0.37 µM | > 30 µM | – | –
5 | CCCCc1nc2c(N)nc3ccccc3c2n1CCCCNS(=O)(=O)c1ccc(Cl)c([N+](=O)[O-])c1 [Example 86] | 0.01 µM | 1 µM | – | –
6 | COCCc1nc2c(N)nc3ccccc3c2n1CCCCNS(=O)(=O)C[C@]12CCC(CC1=O)C2(C)C [Example 148] | 0.0001 µM | 1 µM | – | –
7 | CCCCc1nc2c(N)nc3ccccc3c2n1CCCCNS(=O)(=O)c1ccc(F)cc1 [Example 87] | 0.001 µM | 1 µM | – | –
8 | COCCc1nc2c(N)nc3ccccc3c2n1CCCCNS(=O)(=O)c1ccc(F)cc1 [Example 121] | 0.0001 µM | 10 µM | – | –
9 | CCCCc1nc2c(N)nc3ccccc3c2n1CCCCNS(=O)(=O)C(C)C [Example 38] | 0.0015 µM | 0.37 µM | – | –
10 | COCCc1nc2c(N)nc3ccccc3c2n1CCCCNS(=O)(=O)c1ccc(Br)cc1 [Example 152] | 0.0001 µM | 10 µM | – | –
11 | COCCc1nc2c(N)nc3ccccc3c2n1CCCCNS(=O)(=O)N(C)C [Example 218] | 0.0001 µM | 1 µM | – | –
12 | CCCS(=O)(=O)NCCCCn1c(CCOC)nc2c(N)nc3ccccc3c21 [Example 116] | 0.001 µM | 1 µM | – | –
13 | CCCCc1nc2c(N)nc3ccccc3c2n1CCNS(=O)(=O)Cc1ccccc1 [Example 28] | 1.11 µM | 30 µM | – | –
14 | CCCS(=O)(=O)NCCCCn1cnc2c(N)nc3c(c21)CCCC3 [Example 54] | 10 µM | > 30 µM | – | –
15 | CCCCc1nc2c(N)nc3ccccc3c2n1CCNS(=O)(=O)c1ccccc1 [Example 20] | 0.12 µM | 3.33 µM | – | –
16 | CCOCc1nc2c(N)nc3ccccc3c2n1CCNS(=O)(=O)c1cccs1 [Example 109] | 1 µM | 10 µM | – | –
17 | CCCCc1nc2c(N)nc3ccccc3c2n1CCCCNS(=O)(=O)c1ccc(C(F)(F)F)cc1[N+](=O)[O-] [Example 79] | 0.01 µM | 1 µM | – | –
18 | COCCc1nc2c(N)nc3ccccc3c2n1CCCCNS(C)(=O)=O [Example 111] | 0.001 µM | 10 µM | – | –
19 | COCCc1nc2c(N)nc3ccccc3c2n1CCCCNS(=O)(=O)c1ccc(S(C)(=O)=O)cc1 [Example 161] | 0.01 µM | 10 µM | – | –
20 | CCCCc1nc2c(N)nc3ccccc3c2n1CCCCNS(=O)(=O)c1ccc([N+](=O)[O-])cc1 [Example 88] | 0.01 µM | 1 µM | – | –
21 | CCCCc1nc2c(N)nc3ccccc3c2n1CCCCNS(=O)(=O)c1cccc2ccccc12 [Example 41] | 0.01 µM | > 30 µM | – | –
22 | CCS(=O)(=O)NCCCCn1c(CCOC)nc2c(N)nc3c(c21)CCCC3 [Example 207] | 0.001 µM | 1 µM | – | –
23 | CCCCc1nc2c(N)nc3ccccc3c2n1CCNS(=O)(=O)c1ccc2ccccc2c1 [Example 32] | 1.11 µM | > 30 µM | – | –
24 | CCCCc1nc2c(N)nc3ccccc3c2n1CCCCNS(C)(=O)=O [Example 36] | – | – | 0.0015 µM | 3.33 µM
25 | CCOC(=O)C1CCN(S(=O)(=O)NCCCCn2c(CCOC)nc3c(N)nc4ccccc4c32)CC1 [Example 227] | 0.001 µM | > 10 µM | – | –
26 | CCCCc1nc2c(N)nc3ccccc3c2n1CCNS(=O)(=O)c1ccc(C(C)(C)C)cc1 [Example 25] | 3.33 µM | > 30 µM | – | –
27 | CCCCc1ccc(S(=O)(=O)NCCCCn2c(CCCC)nc3c(N)nc4ccccc4c32)cc1 [Example 98] | 1 µM | > 10 µM | – | –
28 | Nc1nc2c(c3c1ncn3CCCCNS(=O)(=O)/C=C/c1ccccc1)CCCC2 [Example 68] | 10 µM | > 30 µM | – | –

Row | SMILES | minimal effective concentration ([1]; Homo sapiens, PBMC) | minimal effective concentration ([2]; Homo sapiens, PBMC) | minimal effective concentration [1] | minimal effective concentration [2]
29 | Cc1cc(C)c(S(=O)(=O)NCCCCn2cnc3c(N)nc4c(c32)CCCC4)c(C)c1 [Example 63] | > 30 µM | > 30 µM | – | –
30 | COCCc1nc2c(N)nc3ccccc3c2n1CCCCN(C)S(=O)(=O)c1c(C)noc1C [Example 215, N-[4-(4-Amino-2-(2-methoxyethyl)-1H-imidazo[4,5-c]quinolin-1-yl)butyl]-N-methyl-3,5-dimethylisooxazolo-4-sulfonamide Trifluoroacetate] | 0.01 µM | 1 µM | – | –
31 | Cc1ccc(S(=O)(=O)NCCCCn2cnc3c(N)nc4c(c32)CCCC4)cc1 [Example 64] | 3.33 µM | > 30 µM | – | –
32 | CCCCc1nc2c(N)nc3ccccc3c2n1CCCCNS(=O)(=O)c1cc(Br)ccc1OC [Example 52] | – | 10 µM | 0.12 µM | –
33 | CCCCc1nc2c(N)nc3ccccc3c2n1CCCCNS(=O)(=O)c1cc(Cl)ccc1OC [Example 100] | 0.01 µM | 10 µM | – | –
34 | COCCc1nc2c(N)nc3ccccc3c2n1CCCCNS(=O)(=O)c1ccccc1Cl [Example 127] | 0.0001 µM | 10 µM | – | –
35 | CCCCc1nc2c(N)nc3ccccc3c2n1CCCCNS(=O)(=O)CCC [Example 51] | 0.0015 µM | 0.37 µM | – | –
36 | CCCCc1nc2c(N)nc3ccccc3c2n1CCCCNS(=O)(=O)c1c(C)cc(C)cc1C [Example 45] | 0.37 µM | > 30 µM | – | –
37 | CCCCc1nc2c(N)nc3ccccc3c2n1CCCCNS(=O)(=O)c1ccc2c(c1)CN(C(=O)C(F)(F)F)CC2 [Example 102] | 0.001 µM | 10 µM | – | –
38 | CCCCc1nc2c(N)nc3c(c2n1CCCCNS(=O)(=O)C(C)C)CCCC3 [Example 203] | 0.0001 µM | 1 µM | – | –
39 | CCCCc1nc2c(N)nc3ccccc3c2n1CCNS(=O)(=O)c1cccc2cccnc12 [Example 30] | 1.11 µM | > 30 µM | – | –
40 | CCCCc1nc2c(N)nc3ccccc3c2n1CCCCNS(=O)(=O)c1ccc(Cl)s1 [Example 101] | 0.01 µM | 10 µM | – | –
41 | COCCc1nc2c(N)nc3c(c2n1CCCCNS(=O)(=O)N(C)C)CCCC3 [Example 221] | 0.0001 µM | 1 µM | – | –
42 | CCCCc1nc2c(N)nc3ccccc3c2n1CCCCNS(=O)(=O)C(F)(F)F [Example 53] | 0.01 µM | 3.33 µM | – | –
43 | CCCCc1nc2c(N)nc3ccccc3c2n1CCNS(=O)(=O)/C=C/c1ccccc1 [Example 29] | 0.37 µM | 10 µM | – | –
44 | CCCCc1nc2c(N)nc3ccccc3c2n1CCCCNS(=O)(=O)c1ccccc1Br [Example 78] | 0.001 µM | 0.1 µM | – | –
45 | COCCc1nc2c(N)nc3ccccc3c2n1CCCCNS(=O)(=O)c1c(C)noc1C [Example 123] | 0.0001 µM | 10 µM | – | –
46 | CCCCc1nc2c(N)nc3ccccc3c2n1CCCCNS(=O)(=O)c1ccc(C(C)(C)C)cc1 [Example 47] | 0.37 µM | > 30 µM | – | –
47 | COCCc1nc2c(N)nc3c(c2n1CCCCNS(=O)(=O)C[C@@]12CCC(CC1=O)C2(C)C)CCCC3 [Example 212] | 0.0001 µM | 0.01 µM | – | –
48 | CCCCc1nc2c(N)nc3c(c2n1CCCCNS(=O)(=O)c1cccc2c(N(C)C)cccc12)CCCC3 [Example 206] | 1 µM | > 10 µM | – | –
49 | CCCCc1nc2c(N)nc3c(c2n1CCCCNS(=O)(=O)N(C)C)CCCC3 [Example 220] | 0.0001 µM | 1 µM | – | –
50 | CCOCc1nc2c(N)nc3ccccc3c2n1CCNS(C)(=O)=O [Example 108] | 0.1 µM | 10 µM | – | –
51 | COCCc1nc2c(N)nc3ccccc3c2n1CCCCNS(=O)(=O)N1CCCC1 [Example 229] | 0.0001 µM | 0.1 µM | – | –
52 | CCCCc1nc2c(N)nc3ccccc3c2n1CCCCNS(=O)(=O)c1ccc(C)c([N+](=O)[O-])c1 [Example 97] | 0.1 µM | 10 µM | – | –
53 | COCCc1nc2c(N)nc3ccccc3c2n1CCCCNS(=O)(=O)c1ccccc1 [Example 158] | 0.0001 µM | 1 µM | – | –
54 | CCCCc1nc2c(N)nc3ccccc3c2n1CCCCNS(=O)(=O)C[C@]12CC[C@@H](CC1=O)C2(C)C [Example 89] | 0.001 µM | 1 µM | – | –
55 | COCCc1nc2c(N)nc3ccccc3c2n1CCCCNS(=O)(=O)c1ccc(C#N)cc1 [Example 160] | 0.001 µM | 1 µM | – | –

From patent US6825350B2, “Sulfonamide and sulfamide substituted imidazoquinolines and methods for the treatment of periodontal disease using these and other immune response modifiers” (3M Innovative Properties Company, priority 1999, dated 2004)
